In this data set the test system is rodent carcinogenicity bioassays, tumor incidence. Briefly: CCRIS carcinogenicity studies. The note with it: Route: INHALATION
In outline:
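NCI-built, expert-reviewed records of carcinogenicity and related test outcomes (mutagenicity, tumor promotion/inhibition) compiled from published and report sources, historical span 1985-2011, not updated.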

Activity calls are given as the source filed them. How the calls were made is not given here.

For the molecule `C=CC=C`, the carcinogen call was “active; positive” (Species: MOUSE, Strain/Sex: B6C3F1/FEMALE, Dose: 0, 6.25, 20, 62.5, 200, 625 PPM 6 HR/D 5 D/WK FOR 2 YR (STUDY DURATION: 2 YR), Dose: 0, 6.25, 20, 62.5, 200, 625 PPM 6 HR/D 5 D/WK FOR 2 YR (STUDY DURATION: 2 YR), Tumor Site: Type of Lesion: HARDERIAN GLAND: ADENOMA OR ADENOCARCINOMA, LIVER: HEPATOCELLULAR CARCINOMA, MAMMARY GLAND: ADENOCARCINOMA, OVARIES: GRA, Tumor Site: Type of Lesion: HARDERIAN GLAND: ADENOMA OR ADENOCARCINOMA, LIVER: HEPATOCELLULAR CARCINOMA, MAMMARY GLAND: ADENOCARCINOMA, OVARIES: GRA); “active; positive” (Species: MOUSE, Strain/Sex: B6C3F1/FEMALE, Dose: 0, 6.25, 20, 62.5, 200, 625 PPM 6 HR/D 5 D/WK FOR 2 YR (STUDY DURATION: 2 YR), Dose: 0, 6.25, 20, 62.5, 200, 625 PPM 6 HR/D 5 D/WK FOR 2 YR (STUDY DURATION: 2 YR), Tumor Site: Type of Lesion: HEMATOPOIETIC SYSTEM: LYMPHOCYTIC LYMPHOMA, LYMPHOMA, BLOOD VESSELS: HEMANGIOSARCOMA, LUNG: ALVEOLAR/BRONCHIOLAR TUMOR;, Tumor Site: Type of Lesion: HEMATOPOIETIC SYSTEM: LYMPHOCYTIC LYMPHOMA, LYMPHOMA, BLOOD VESSELS: HEMANGIOSARCOMA, LUNG: ALVEOLAR/BRONCHIOLAR TUMOR); “active; positive” (Species: MOUSE, Strain/Sex: B6C3F1/FEMALE, Dose: 0, 6.25, 20, 62.5, 200, 625 PPM 6 HR/D 5 D/WK FOR 103 WK (STUDY DURATION: 2 YR), Dose: 0, 6.25, 20, 62.5, 200, 625 PPM 6 HR/D 5 D/WK FOR 103 WK (STUDY DURATION: 2 YR), Tumor Site: Type of Lesion: HEART: HEMANGIOSARCOMA, LUNG: ALVEOLAR/BRONCHIOLAR ADENOMA, ADENOCARCINOMA OR CARCINOMA, FORESTOMACH: SQUAMOUS CELL PAPI, Tumor Site: Type of Lesion: HEART: HEMANGIOSARCOMA, LUNG: ALVEOLAR/BRONCHIOLAR ADENOMA, ADENOCARCINOMA OR CARCINOMA, FORESTOMACH: SQUAMOUS CELL PAPI); “active; positive” (Species: MOUSE, Strain/Sex: B6C3F1/FEMALE, Dose: 0, 6.25, 20, 62.5, 200 PPM 6 HR/D 5 D/WK FOR 65 WK (STUDY DURATION: 104 WK), Dose: 0, 6.25, 20, 62.5, 200 PPM 6 HR/D 5 D/WK FOR 65 WK (STUDY DURATION: 104 WK), Tumor Site: Type of Lesion: HEART: HEMANGIOSARCOMA, LUNG: ALVEOLAR/BRONCHIOLAR TUMOR, MAMMARY GLAND: ADENOCARCINOMA, OVARY: GRANULOSA CELL TUMOR, Tumor Site: Type of Lesion: HEART: HEMANGIOSARCOMA, LUNG: ALVEOLAR/BRONCHIOLAR TUMOR, MAMMARY GLAND: ADENOCARCINOMA, OVARY: GRANULOSA CELL TUMOR); “inactive; negative” (Species: MOUSE, Strain/Sex: B6C3F1/FEMALE, Dose: 0, 1000, 5000, 10000 PPM FOR 2 HR ONCE (STUDY DURATION: 2 YR), Dose: 0, 1000, 5000, 10000 PPM FOR 2 HR ONCE (STUDY DURATION: 2 YR)); “active; positive” (Species: MOUSE, Strain/Sex: B6C3F1/FEMALE, Dose: 625, 1250 PPM 6 HR/D 5/WK FOR 61 WK, Tumor Site: Type of Lesion: LYMPHATIC SYSTEM: MALIGNANT LYMPHOMA, LUNG: ALVEOLAR/BRONCHIOLAR ADENOMA, CARCINOMA, MYOCARDIUM: HEMANGIOSARCOMA, FOREST, Tumor Site: Type of Lesion: LYMPHATIC SYSTEM: MALIGNANT LYMPHOMA, LUNG: ALVEOLAR/BRONCHIOLAR ADENOMA, CARCINOMA, MYOCARDIUM: HEMANGIOSARCOMA, FOREST). Further, the carcinogen call reads like this: (Species: MOUSE, Strain/Sex: B6C3F1/MALE, Dose: 0, 6.25, 20, 62.5, 200, 625 PPM 6 HR/D 5 D/WK FOR 2 YR (STUDY DURATION: 2 YR), Dose: 0, 6.25, 20, 62.5, 200, 625 PPM 6 HR/D 5 D/WK FOR 2 YR (STUDY DURATION: 2 YR), Tumor Site: Type of Lesion: HEMATOPOIETIC SYSTEM: LYMPHOCYTIC LYMPHOMA, LYMPHOMA, BLOOD VESSELS: HEMANGIOSARCOMA, LUNG: ALVEOLAR/BRONCHIOLAR TUMOR;, Tumor Site: Type of Lesion: HEMATOPOIETIC SYSTEM: LYMPHOCYTIC LYMPHOMA, LYMPHOMA, BLOOD VESSELS: HEMANGIOSARCOMA, LUNG: ALVEOLAR/BRONCHIOLAR TUMOR) “active; positive”; (Species: MOUSE, Strain/Sex: B6C3F1/MALE, Dose: 0, 6.25, 20, 62.5, 200, 625 PPM 6 HR/D 5 D/WK FOR 2 YR (STUDY DURATION: 2 YR), Dose: 0, 6.25, 20, 62.5, 200, 625 PPM 6 HR/D 5 D/WK FOR 2 YR (STUDY DURATION: 2 YR), Tumor Site: Type of Lesion: PREPUTIAL GLAND: ADENOMA OR CARCINOMA, LIVER: HEPATOCELLULAR TUMOR, HARDERIAN GLAND: TUMOR, Tumor Site: Type of Lesion: PREPUTIAL GLAND: ADENOMA OR CARCINOMA, LIVER: HEPATOCELLULAR TUMOR, HARDERIAN GLAND: TUMOR) “active; positive”; (Species: MOUSE, Strain/Sex: B6C3F1/MALE, Dose: 0, 6.25, 20, 62.5, 200, 625 PPM 6 HR/D 5 D/WK FOR 103 WK (STUDY DURATION: 2 YR), Dose: 0, 6.25, 20, 62.5, 200, 625 PPM 6 HR/D 5 D/WK FOR 103 WK (STUDY DURATION: 2 YR), Tumor Site: Type of Lesion: HEART: HEMANGIOSARCOMA, LUNG: ALVEOLAR/BRONCHIOLAR ADENOMA, ADENOCARCINOMA OR CARCINOMA, FORESTOMACH: SQUAMOUS CELL PAPI, Tumor Site: Type of Lesion: HEART: HEMANGIOSARCOMA, LUNG: ALVEOLAR/BRONCHIOLAR ADENOMA, ADENOCARCINOMA OR CARCINOMA, FORESTOMACH: SQUAMOUS CELL PAPI) “active; positive”; (Species: MOUSE, Strain/Sex: B6C3F1/MALE, Dose: 0, 6.25, 20, 62.5, 200 PPM, 6 HR/D 5 D/WK FOR 65 WK (STUDY DURATION: 104 WK), Dose: 0, 6.25, 20, 62.5, 200 PPM, 6 HR/D 5 D/WK FOR 65 WK (STUDY DURATION: 104 WK), Tumor Site: Type of Lesion: HEART: HEMANGIOSARCOMA, LUNG: ALVEOLAR/BRONCHIOLAR TUMOR, HARDERIAN GLAND: ADENOMA, Tumor Site: Type of Lesion: HEART: HEMANGIOSARCOMA, LUNG: ALVEOLAR/BRONCHIOLAR TUMOR, HARDERIAN GLAND: ADENOMA) “active; positive”; (Species: MOUSE, Strain/Sex: B6C3F1/MALE, Dose: 0, 200 PPM 6 HR/D 5 D/WK FOR 40 WK, 625 PPM FOR 13 WK, 312 PPM FOR 52 WK OR 625 PPM FOR 26 WK FOLLOWED BY CONTROL CHAMBE, Dose: 0, 200 PPM 6 HR/D 5 D/WK FOR 40 WK, 625 PPM FOR 13 WK, 312 PPM FOR 52 WK OR 625 PPM FOR 26 WK FOLLOWED BY CONTROL CHAMBE, Tumor Site: Type of Lesion: HEART: HEMANGIOSARCOMA, LUNG: ALVEOLAR/BRONCHIOLAR ADENOMA, ADENOCARCINOMA OR CARCINOMA, FORESTOMACH: SQUAMOUS CELL PAPI, Tumor Site: Type of Lesion: HEART: HEMANGIOSARCOMA, LUNG: ALVEOLAR/BRONCHIOLAR ADENOMA, ADENOCARCINOMA OR CARCINOMA, FORESTOMACH: SQUAMOUS CELL PAPI) “active; positive”; (Species: MOUSE, Strain/Sex: B6C3F1/MALE, Dose: 0, 1000, 5000, 10000 PPM FOR 2 HR ONCE (STUDY DURATION: 2 YR), Dose: 0, 1000, 5000, 10000 PPM FOR 2 HR ONCE (STUDY DURATION: 2 YR)) “inactive; negative”. Further, the carcinogen call is “active; positive” (Species: MOUSE, Strain/Sex: B6C3F1/MALE, Dose: 625, 1250 PPM 6 HR/D 5/WK FOR 60 WK, Tumor Site: Type of Lesion: LYMPHATIC SYSTEM: MALIGNANT LYMPHOMA, LUNG: ALVEOLAR/BRONCHIOLAR ADENOMA, CARCINOMA, MYOCARDIUM: HEMANGIOSARCOMA, FOREST, Tumor Site: Type of Lesion: LYMPHATIC SYSTEM: MALIGNANT LYMPHOMA, LUNG: ALVEOLAR/BRONCHIOLAR ADENOMA, CARCINOMA, MYOCARDIUM: HEMANGIOSARCOMA, FOREST); “active; positive” (Species: RAT, Strain/Sex: SPRAGUE-DAWLEY/FEMALE, Dose: 0, 1000, 8000 PPM 6 HR/D 5 D/WK FOR 105 WK (STUDY DURATION: 105 WK), Dose: 0, 1000, 8000 PPM 6 HR/D 5 D/WK FOR 105 WK (STUDY DURATION: 105 WK), Tumor Site: Type of Lesion: UTERUS: SARCOMA, MAMMARY GLAND: ADENOMA, ZYMBAL GLAND: CARCINOMA, THYROID GLAND: FOLLICULAR CELL ADENOMA, Tumor Site: Type of Lesion: UTERUS: SARCOMA, MAMMARY GLAND: ADENOMA, ZYMBAL GLAND: CARCINOMA, THYROID GLAND: FOLLICULAR CELL ADENOMA); “active; positive” (Species: RAT, Strain/Sex: SPRAGUE-DAWLEY/MALE, Dose: 0, 1000, 8000 PPM 6 HR/D 5 D/WK FOR 111 WK (STUDY DURATION: 111 WK), Dose: 0, 1000, 8000 PPM 6 HR/D 5 D/WK FOR 111 WK (STUDY DURATION: 111 WK), Tumor Site: Type of Lesion: PANCREAS: ACINAR CELL ADENOMA, TESTES: LEYDIG CELL TUMOR).

Source of the values: PubChem BioAssay AID1259411 (Chemical Carcinogenesis Research Information System (CCRIS), 2018).
